The record followed here is ChEMBL document CHEMBL1123759, “Nonequilibrium opioid antagonist activity of 6,14-dideoxynaltrexone derivatives” (1987).

What all share (format): functional
Experiment [1] is filed under the species Mus musculus. The experiment is described as follows: Compound was evaluated for irreversible antagonist activity in Mouse vas deference(MVD) agonist (DADLE) IC50 after antagonist treatment (50 nM) divided by the agonist control IC50.
For experiment [2], the species on record is Cavia porcellus. The experiment is described as follows: Compound was evaluated for irreversible antagonist activity in Guinea pig ileum (GPI) agonist (morphine) IC50 after antagonist treatment (20 nM) divided by the agonist control IC50.
Experiment [3] is filed under the species Cavia porcellus. The experiment in a line: Compound was evaluated for irreversible antagonist activity in Guinea pig ileum (GPI) agonist (ethylketazocine) IC50 after antagonist treatment (20 nM) divided by the agonist control IC50.
The species named for experiment [4] is Mus musculus. The experiment in a line: Compound was evaluated for irreversible antagonist activity in Mouse vas deference(MVD) agonist (morphine) IC50 after antagonist treatment (50 nM) divided by the agonist control IC50.
Experiment [5] is filed under the species Cavia porcellus. The experiment in a line: Compound was evaluated for agonist activity in Guinea pig ileum (GPI) partial agonist (potency ratio is based on IC10 value for compound and morphine).
The species entered for experiment [6] is Cavia porcellus. The experiment is described as follows: Compound was evaluated for irreversible antagonist activity in Guinea pig ileum (GPI) agonist (morphine) IC50 after antagonist treatment (200 nM) divided by the agonist control IC50 (Tissue was treated with 200 nM compound rather than 20 nM).
The species named for experiment [7] is Mus musculus. The experiment is described as follows: Compound was evaluated for agonist activity in Mouse vas deferens (MVD).
The species named for experiment [8] is Cavia porcellus. The experiment is described as follows: Compound was evaluated for irreversible antagonist activity in Guinea pig ileum (GPI)agonist (ethylketazocine) IC50 after antagonist treatment (200 nM) divided by the agonist control IC50.
Experiment [9] is filed under the species Cavia porcellus. The experiment in a line: Compound was evaluated for irreversible antagonist activity in Guinea pig ileum (GPI) agonist (morphine) IC50 after antagonist treatment (200 nM) divided by the agonist control IC50.
The species entered for experiment [10] is Cavia porcellus. The experiment is described as follows: Compound was evaluated for agonist activity in Guinea pig ileum (GPI).

Turning to `Oc1ccc2c3c1O[C@H]1[C@H](N=C=S)CCC4C(C2)N(CC2CC2)CCC341` (some centres undefined), the IC50 ratio worked out at 1.96 in the experiment listed under Mus musculus [1]; 4.8 in the experiment listed under Cavia porcellus [2]; 1.58 in the experiment listed under Cavia porcellus [3]; 11.5 in the experiment filed under Mus musculus [4]; 70 in the experiment listed under Cavia porcellus [6]; 2.29 in the experiment listed under Cavia porcellus [8]. Also, the Potency ratio came to 3.1 in the experiment listed under Cavia porcellus [5] and 4.5 in the experiment filed under Mus musculus [7].
Take `COC(=O)/C=C/C(=O)N[C@@H]1CCC2C3Cc4ccc(O)c5c4C2(CCN3CC2CC2)[C@H]1O5` (some centres undefined): the IC50 ratio in the experiment filed under Mus musculus [1] is reported as 2.29; in the experiment filed under Cavia porcellus [2] it was 1.58; in the experiment listed under Cavia porcellus [9], 2.77; in the experiment listed under Cavia porcellus [3], 1.33; in the experiment filed under Mus musculus [4], 4.12; in the experiment listed under Cavia porcellus [8], 0.5. Besides, the Potency ratio in the experiment filed under Mus musculus [7] worked out at 18; in the experiment filed under Cavia porcellus [10], 17.62.
`O=C(CI)N[C@@H]1CCC2C3Cc4ccc(O)c5c4C2(CCN3CC2CC2)[C@H]1O5` (some centres undefined): the IC50 ratio in the experiment filed under Mus musculus [1] is recorded as 2.4; in the experiment listed under Cavia porcellus [2], 3.05; in the experiment listed under Cavia porcellus [3], 1.03; in the experiment filed under Mus musculus [4], 15.6. For the same molecule, the Potency ratio in the experiment listed under Mus musculus [7] was found to be 25.3; in the experiment listed under Cavia porcellus [10], 6.27.
Turning to `COC(=O)/C=C/C(=O)N[C@@H]1CC[C@@]2(O)[C@H]3Cc4ccc(O)c5c4[C@@]2(CCN3CC2CC2)[C@H]1O5`, the IC50 ratio in the experiment listed under Mus musculus [1] was 1.8; in the experiment filed under Cavia porcellus [2] it was 6; in the experiment filed under Cavia porcellus [3], 1; in the experiment filed under Mus musculus [4] it was 3.9. In addition, the Potency ratio came out at 4.4 in the experiment filed under Mus musculus [7] and 5 in the experiment listed under Cavia porcellus [10].
Turning to `CN(CCCl)[C@@H]1CCC2C3Cc4ccc(O)c5c4C2(CCN3CC2CC2)[C@H]1O5` (some centres undefined), the IC50 ratio in the experiment filed under Mus musculus [1] worked out at 46.77; in the experiment filed under Cavia porcellus [2] it was 125; in the experiment filed under Cavia porcellus [3], 6.25; in the experiment filed under Mus musculus [4], 51. Further, the Potency ratio in the experiment filed under Mus musculus [7] is given as 380; in the experiment listed under Cavia porcellus [10] it was 154.
